Measured values published in US10487129B2, “Stabilized insulinotropic peptides and methods of use” (Dana-Farber Cancer Institute, Inc., priority 2010, dated 2019).
Positions of bridges follow the written chain, without caps; N, C: chain ends. Non-standard residues stand in square brackets, D forms with d. Residues, ends and D or L forms follow the SMILES beside them. No end group written: not given here. S5 = C=CCCC[C@](C)(N)C(=O)O; Nle = CCCC[C@H](N)C(=O)O

Columns and labels:
[1] = Circular dichroism thermal unfolding, 5-83° C.; assay type: physicochemical
[2] = target: pepsin (Sus scrofa, UniProt P00791); experiment: in vitro; assay type: in vitro ADME; conditions: pH 2
Sequence of pepsin (P00791 60-385): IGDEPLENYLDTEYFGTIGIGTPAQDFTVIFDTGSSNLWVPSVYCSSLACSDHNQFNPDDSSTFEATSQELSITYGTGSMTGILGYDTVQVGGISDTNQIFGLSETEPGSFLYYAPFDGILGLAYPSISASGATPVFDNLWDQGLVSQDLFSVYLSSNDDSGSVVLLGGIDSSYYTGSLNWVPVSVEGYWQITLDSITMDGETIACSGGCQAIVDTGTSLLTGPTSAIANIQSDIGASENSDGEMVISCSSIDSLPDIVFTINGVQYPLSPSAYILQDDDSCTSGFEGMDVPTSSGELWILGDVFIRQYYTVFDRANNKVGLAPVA
Experimental: In vitro proteolytic degradation of structured peptides was measured by LC/MS (Agilent 1200) using the following parameters: 20 μL injection, 0.6 mL flow rate, 15 min run time consisting of a gradient of water (0.1% formic acid) to 20-80% acetonitrile (0.075% formic acid) over 10 min, 4 min wash to revert to starting gradient conditions, and 0.5 min post-time. The DAD signal was set to 280 nm with an 8 nm bandwidth and MSD set to scan mode with one channel at (M+2H)/2, +1 mass units and the other at (M+3H)/3, +1 mass units. Integration of each MSD signal yielded areas under the curve of >10^8 counts. Reaction samples were composed of 5 μL peptide in DMSO (1 mM stock) and 195 μL of buffer consisting of 50 mM phosphate buffer pH 7.4 containing 2 mM CaCl2. Upon injection of the 0 hr time point sample, 2 μL of 50 ng/μL chymotrypsin (Sigma) was added and the amount of intact peptide quantitated by serial injection over time. An internal control of acetylated tryptophan carboxamide at a concentration of 100 μM was used to normalize each MSD data point. A plot of MSD area versus time yielded an exponential decay curve and half-lives were determined by nonlinear regression analysis using Prism software (GraphPad). The assay was also performed using trypsin and pepsin in their appropriate buffer conditions.

[3] = target: T1, chymotrypsin (Bos taurus, UniProt P00766); assay type: in vitro ADME; set-up: purchased Sigma; conditions: pH 7
From the text: A major limitation of peptides as therapeutics is their susceptibility to rapid proteolytic degradation. […] One of the potential benefits of a covalent crosslinking strategy to enforce peptide α-helicity is shielding of the vulnerable amide bonds from proteolysis. Because proteases require that peptides adopt an extended conformation to hydrolyze amide bonds, the structural constraint afforded by the hydrocarbon staple can render crosslinked peptides protease-resistant.

[4] = target: T1, chymotrypsin; experiment: Chymotrypsin proteolysis of gp41-derived HIV-1 fusion inhibitor peptides
Experimental: In vitro proteolytic degradation of structured peptides was measured by LC/MS (Agilent 1200) using the following parameters: 20 μL injection, 0.6 mL flow rate, 15 min run time consisting of a gradient of water (0.1% formic acid) to 20-80% acetonitrile (0.075% formic acid) over 10 min, 4 min wash to revert to starting gradient conditions, and 0.5 min post-time. The DAD signal was set to 280 nm with an 8 nm bandwidth and MSD set to scan mode with one channel at (M+2H)/2, +1 mass units and the other at (M+3H)/3, +1 mass units. […] Reaction samples were composed of 5 μL peptide in DMSO (1 mM stock) and 195 μL of buffer consisting of 50 mM phosphate buffer pH 7.4 containing 2 mM CaCl2. Upon injection of the 0 hr time point sample, 2 μL of 50 ng/μL chymotrypsin (Sigma) was added and the amount of intact peptide quantitated by serial injection over time. An internal control of acetylated tryptophan carboxamide at a concentration of 100 μM was used to normalize each MSD data point. A plot of MSD area versus time yielded an exponential decay curve and half-lives were determined by nonlinear regression analysis using Prism software (GraphPad). The assay was also performed using trypsin and pepsin in their appropriate buffer conditions.

[5] = Circular dichroism melting of gp41 peptides; assay type: physicochemical; conditions: circular dichroism melting profile
Experimental: The alpha-helicity of stapled modified polypeptides was compared to their unmodified counterparts by circular dichroism. CD spectra were obtained on an Aviv spectropolarimeter at 20° C. using the following standard measurement parameters: wavelength, 190-260 nm; step resolution, 0.5 nm; speed, 20 nm/sec; accumulations, 10; response, 1 sec; bandwidth, 1 nm; path length, 0.1 cm. The alpha-helical content of each peptide was calculated by dividing the mean residue ellipticity [θ]222obs by the reported [θ]222obs for a model helical peptide (Forood, B., E. J. Feliciano, and K. P. Nambiar, PNAS, 1993. 90(3): p. 838-842; J. Martin Scholtz, Biopolymers, 1991. 31(13): p. 1463-1470; Lawless, M. K., et al., Biochemistry, 1996. 35(42): p. 13697-13708) or using, for example, the Aviv machine using CDNN software developed by Brohm in order to deduce five different secondary structure fractions (helix, parallel and antiparallel beta-sheet, beta-turn and random coil). Protein Engineering, 1992. 5(3); p. 191-195. Thermal stability is assessed by acquiring circular dichroism spectra across a broad temperature range and determining the melting temperatures for each constrained peptide.

[6] = test system: isolated pancreatic islets; experiment: Glucose-stimulated insulin release (GSIS) from isolated pancreatic islets; assay type: cell-based, mouse; conditions: 10 nM peptide, 1.67 mM to 16.7 mM glucose, 1 hour at 37° C., insulin ELISA
Experimental: Stock solutions of SAH-Ex and SAH-GLP peptides were generated by dissolving the lyophilized powders in deionized water at 100 μM. The following treatment solutions were made for batch GSIS assays: 1.67 mM glucose, 16.7 mM glucose, 1.67 mM glucose+10 nM peptide, 16.7 mM glucose+10 nM peptide all in 1×KRB buffer, 2 mM CaCl2, 0.05% BSA. Islets isolated from wild-type mouse pancreas were washed 3 times with KRB buffer and 5 islets per experimental tube were incubated in KRB buffer containing 1.67 mM glucose for 30 min at 37° C. Islets were then pelleted and the buffer replaced with the treatment solutions listed above. Each experimental condition was examined in replicates of n=8. After 1 hour incubation at 37° C., islets were pelleted and the supernatants collected for glucose stimulated insulin release measurement. The pellets are solubilized to assess intracellular insulin content to normalize for cell number. Insulin was measured by ELISA using mouse insulin as a standard (Insulin ELISA Kit, cat. 80-INSMS-E01, ALPCO). For the insulin ELISA plots, there is a small increase in the amount of insulin released in response to escalation of the glucose dose from 1.67 mM to 16.7 mM.

In the case of `CC[C@H](C)[C@H](NC(=O)[C@H](Cc1ccccc1)NC(=O)[C@H](CC(C)C)NC(=O)[C@H](CCCNC(=N)N)NC(=O)[C@@H](NC(=O)[C@H](C)NC(=O)[C@H](CCC(=O)O)NC(=O)[C@H](CCC(=O)O)NC(=O)[C@H](CCC(=O)O)NC(=O)[C@]1(C)CCCC=CCCC[C@](C)(NC(=O)[C@H](CC(=O)O)NC(=O)[C@H](CO)NC(=O)[C@@H](NC(=O)[C@H](Cc2ccccc2)NC(=O)[C@@H](NC(=O)CNC(=O)[C@H](CCC(=O)O)NC(=O)CNC(=O)[C@@H](N)Cc2c[nH]cn2)[C@@H](C)O)[C@@H](C)O)C(=O)N[C@@H](CO)C(=O)N[C@@H](CCCCN)C(=O)N[C@@H](CCC(N)=O)C(=O)N1)C(C)C)C(=O)N[C@@]1(C)CCCC=CCCC[C@@](C)(C(=O)NCC(=O)NCC(=O)N2CCC[C@H]2C(=O)N[C@@H](CO)C(=O)N[C@@H](CO)C(=O)NCC(=O)N[C@@H](C)C(=O)N2CCC[C@H]2C(=O)N2CCC[C@H]2C(=O)N2CCC[C@H]2C(=O)N[C@@H](CO)C(N)=O)NC(=O)[C@H](CCCCN)NC(=O)[C@H](CC(C)C)NC(=O)[C@H](Cc2c[nH]c3ccccc23)NC1=O` (single isomer, unassigned) [SAH-Ex(A, B)], the “slope of temperature melt line” value [1] is reported as “flatter sloped line”, the “enhancement in pepsin resistance compared to the template peptide” value [2] is reported as 13 fold and the half-life at 25 μM [2] is reported as 2.87 h. For the same molecule, the “enhancement in chymotrypsin resistance compared to the singly stapled peptides” value [3] was “up to 4 fold” and the “enhancement in chymotrypsin resistance compared to the template peptide” value [3] was 8 fold.
With `CCCC[C@H](NC(=O)[C@H](Cc1c[nH]c2ccccc12)NC(=O)[C@@H](NC(=O)[C@@H](N)CCCC)[C@@H](C)O)C(=O)N[C@@H](CCC(=O)O)C(=O)N[C@@H](Cc1c[nH]c2ccccc12)C(=O)N[C@@H](CC(=O)O)C(=O)N[C@@H](CCCNC(=N)N)C(=O)N[C@@H](CCC(=O)O)C(=O)N[C@H](C(=O)N[C@@H](CC(N)=O)C(=O)N[C@@H](CC(N)=O)C(=O)N[C@@H](Cc1ccc(O)cc1)C(=O)N[C@H](C(=O)N[C@@H](CO)C(=O)N[C@@H](CC(C)C)C(=O)N[C@H](C(=O)N[C@@H](Cc1c[nH]cn1)C(=O)N[C@@H](CO)C(=O)N[C@@H](CC(C)C)C(=O)N[C@H](C(=O)N[C@@H](CCC(=O)O)C(=O)N[C@@H](CCC(=O)O)C(=O)N[C@@H](CO)C(=O)N[C@@H](CCC(N)=O)C(=O)N[C@@H](CC(N)=O)C(=O)N[C@@H](CCC(N)=O)C(=O)N[C@@]1(C)CCCC=CCCC[C@@](C)(C(=O)N[C@@H](CCC(N)=O)C(=O)N[C@@H](CCC(=O)O)C(=O)N[C@@H](CC(C)C)C(=O)N[C@@H](CC(C)C)C(=O)N[C@@H](CCC(=O)O)C(N)=O)NC(=O)[C@H](CC(N)=O)NC(=O)[C@H](CCCCN)NC(=O)[C@H](CCC(=O)O)NC1=O)[C@@H](C)CC)[C@@H](C)CC)[C@@H](C)O)[C@@H](C)CC` [SAH-gp41(626-662)(B)] (H-[Nle]TW[Nle]EWDREINNYTSLIHSLIEESQNQ[S5]EKN[S5]QELLE-NH2; staple 28-32; N-terminus assumed) the half-life [4] was 1.28 h.
With `C=CCCC[C@](C)(NC(=O)[C@H](CC(N)=O)NC(=O)[C@H](CCCCN)NC(=O)[C@H](CCC(=O)O)NC(=O)[C@](C)(CCCC=C)NC(=O)[C@H](CCC(N)=O)NC(=O)[C@H](CC(N)=O)NC(=O)[C@H](CCC(N)=O)NC(=O)[C@H](CO)NC(=O)[C@H](CCC(=O)O)NC(=O)[C@H](CCC(=O)O)NC(=O)[C@@H](NC(=O)[C@H](CC(C)C)NC(=O)[C@H](CO)NC(=O)[C@H](Cc1c[nH]cn1)NC(=O)[C@@H](NC(=O)[C@H](CC(C)C)NC(=O)[C@H](CO)NC(=O)[C@@H](NC(=O)[C@H](Cc1ccc(O)cc1)NC(=O)[C@H](CC(N)=O)NC(=O)[C@H](CC(N)=O)NC(=O)[C@@H](NC(=O)[C@H](CCC(=O)O)NC(=O)[C@](C)(CCCC=C)NC(=O)[C@H](CC(=O)O)NC(=O)[C@H](Cc1c[nH]c2ccccc12)NC(=O)[C@H](CCC(=O)O)NC(=O)[C@](C)(CCCC=C)NC(=O)[C@H](Cc1c[nH]c2ccccc12)NC(=O)[C@@H](NC(=O)[C@@H](N)CCCC)[C@@H](C)O)[C@@H](C)CC)[C@@H](C)O)[C@@H](C)CC)[C@@H](C)CC)C(=O)N[C@@H](CCC(N)=O)C(=O)N[C@@H](CCC(=O)O)C(=O)N[C@@H](CC(C)C)C(=O)N[C@@H](CC(C)C)C(=O)N[C@@H](CCC(=O)O)C(N)=O` [UAH-gp41(626-662)(A,B)] (H-[Nle]TW[S5]EWD[S5]EINNYTSLIHSLIEESQNQ[S5]EKN[S5]QELLE-NH2; N-terminus assumed) the half-life [4] was 0.6 h, the “protection from chymotrypsin proteolysis, result in words” value [4] was “does not confer significant protection” and the Tm [5] was 27 °C.
In the case of “GLP1: Glucagon-like Peptide-1, insulin secretagogue (HAEGTFTSDVSSYLEGQAAKEFIAWLVKGR; ends and bridges not checked; UniProt P01275 98-127, looked up)”, the “glucose-stimulated insulin release (GSIS)” value [6] is reported as “substantial increase in GSIS”.
